Here are results for two compounds from patent US12605382B2, “Pharmaceutical composition for preventing, alleviating, or treating cancer containing 2,6-dichloro-4-(4-(4-hydroxycyclohexylamino)-7H- pyrrolo[2,3-d]pyrimidin-5-yl)phenol as active ingredient” (JBKLAB CO., LTD., priority 2021, dated 2026).

Assay [1] has as its system Hep3B. Nature of the assay: WST-8 cell viability assay, hepatocellular carcinoma cell line. Format: cell-based. The conditions noted are these: 24, 48 and 72 hours. How it is done:
(§1) Specifically, the WST-8 assay to check the cell viability of HepG2 and Hep3B, which are hepatocellular carcinoma cell lines shown in FIGS. 7A-7C and 8A-8C, was performed as follows. HepG2 and Hep3B were each seeded in 96-well plates at the density of 5×10^3 cells/well and cultured for 24 hours. Then, Sorafenib and OPT-0139 were diluted stepwise at a twofold concentration and then treated to the plates at different concentrations, followed by culture for 24, 48, and 72 hours. […] of WST-8 solution was added to each well of the plate, and the absorbance was measured with a microplate reader using a 450 nm optical filter to measure the formazan produced by the reducing factors in living cells.
(§2) Therefore, the number of living cells could be measured by measuring absorbance.
On the technique in general: Formazan colour is commonly taken as a measure of viable cells.

Assay [2] concerns HepG2. The description is as above. Format: cell-based. The following applies: 24, 48 and 72 hours. The procedure:
as §1, §2

Assay [3] concerns Hep3B. Nature of the assay: Clonogenic assay. The conditions noted are these: 2.5 and 5 μM, 10 days. The assay is classed as cell-based. How it is done:
(§3) HepG2 and Hep3B were each seeded in 12-well plates at the density of 3×10^3 cells/well and cultured for 24 hours. Then, Sorafenib and the compound of Example 1 were treated thereto at 2.5 and 5 μM each and cultured for 10 days. Upon completion of the culture, the cells were washed with PBS, fixed with 37% formaldehyde, and stained with 0.01% crystal violet. After staining, the cells were washed with distilled water and the colonies of stained cells were photographed.

Assay [4] concerns HepG2. The assay is described as follows: Clonogenic assay. The assay is classed as cell-based. The following applies: 2.5 and 5 μM, 10 days. The procedure:
as §3

The subject of another assay is Huh-7. The assay is described as follows: Cell viability alone and in combination with sorafenib. The following applies: 1 μM alone. The assay is classed as cell-based, Human. The procedure: (§4) Human liver cancer cell lines (SK Hep1 and Huh-7) were treated with control (no treatment), 0.1 μM of the compound of Example 1, 1 μM of sorafenib, and 0.1 μM of the compound of Example 1/1 μM of sorafenib, and the cell viability of SK Hep1 and Huh-7 was confirmed.

In another assay the test system is SK Hep1. The description is as above. Format: cell-based, Human. The following applies: 1 μM alone. The procedure:
as §4

The next assay concerns OVCAR-3. Nature of the assay: Cell viability alone and in combination with cisplatin. Format: cell-based, Human. The conditions noted are these: 1 μM alone. The procedure:
(§5) Human ovarian cancer cell lines (SKOV-3 and OVCAR-3) were treated with control (no treatment), 0.1 μM of the compound of Example 1, 1 μM of cisplatin, and 0.1 μM of the compound of Example 1/1 μM of cisplatin, and the cell viability of SKOV-3 and OVCAR-3 was confirmed.

Another assay relates to SKOV-3. The assay is described as above. The following applies: 1 μM alone. Format: cell-based, Human. How it is done:
as §5

Regarding `CNC(=O)c1cc(Oc2ccc(NC(=O)Nc3ccc(Cl)c(C(F)(F)F)c3)cc2)ccn1` [Sorafenib, reference compound], the cell viability result was “decreased the cell viability dose and time dependently” with Hep3B [1]; “decreased the cell viability dose and time dependently” in the assay with HepG2 [2]; “suppressed” with Huh-7; “suppressed” with SK Hep1. The “number of colonies, treated vs not treated” value in the assay with Hep3B [3] and in the assay on HepG2 [4] was “clear difference in the number of colonies” each time.
On to `N.N.[Cl][Pt][Cl]` [cisplatin, reference compound], for which the cell viability entry with OVCAR-3 and with SKOV-3 was “suppressed” each time.
